Measurements: patent publication US9364449B2, “Peptoid and synthetic oligomers, pharmaceutical compositions and methods of using same” (New York University, priority 2011, dated 2016)
“Also recorded” adds a separate entry of the source. Non-standard residues stand in square brackets, D forms with d. Residues, ends and D or L forms follow the SMILES beside them. Sar = CNCC(=O)O

Test system: primary hippocampal neurons
Assay: Accumulation of aggregated FITC labeled Aβ1-40 on the surface of neurons
Assay type: cell-based, C57bL/6 mice
Settings: 18 DIV neurons, FITC labeled Aβ1-40, treated with compound
Experimental: P0-P1 pups of C57bL/6 mice were killed by decapitation and brains were removed in aseptic conditions. To establish cultures of primary hippocampal neurons the hippocampi were dissected from both hemispheres under AmScope stereoscopic microscope (AmScope, Chino, Calif.). Fragments of tissue were placed in the ice-cold Ca^2+ and Mg^2+ free Hank's balanced salt solution (HBSS) and gently cut further into fine pieces which were then treated with 0.05% trypsin in HBSS for 10 min at 37° C. to obtain cell suspension. Following addition of 0.1% type-I-S trypsin inhibitor and 0.05% DNase I, the cell suspension was centrifuged at 500×g for 30 sec. […] The cell suspension was then filtered through a 70-μm mesh, and the cells were counted using hematocytometer (Hausser Scientific, Horsham, Pa.). […]
Coverslip inserts covered by the primary hippocampal neuro^ns were immersed three times in PBS at 37° C., and then in 80% ice-cold methanol for 10 min to fix the neurons, and washed again three times in PBS. […] Biotinylated secondary antibodies (1:1,000) followed by Cy3 conjugated streptavidine (1:500) were used to detected binding of primary Abs to their antigens. […] Immunostained neurons were analyzed under 80i Nikon fluorescent microscope (Nikon Corp. Tokyo, Japan). […]

Structure (SMILES): CC(C)CC(NC(=O)C(CCCCN)NC(=O)CN)C(=O)NC(C(=O)NC(Cc1ccccc1)C(=O)N(C)CC(=O)NC(C)C(N)=O)C(C)C (stereo not shown) [GKLVFNmgA] (H-GKLVF[Sar]A-NH2; configuration not given here)
- accumulation of aggregated Aβ1-40 on the surface of neurons: Reduction in the number of AB aggregates; also recorded: Reduced accumulation
